In PubChem BioAssay (NCI) one finds GI50 and TGI data, which are given here for 16 compounds.

Holding throughout (assay): inhibition of tumour cell growth, NCI panel, 48 h
For assay [1], the system named is NCI/ADR-RES ovarian.
Assay [2] has as its system MCF7 breast.
Assay [3] concerns BT-549 breast.
The test system of assay [4] is T-47D breast.

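48-hour exposure; five concentrations; linearly interpolated endpoints. The concentration for 50% growth inhibition is given as GI50. TGI marks complete inhibition of growth.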 Where only a bound is given, the exact number is not on record here.

Take `Cc1ccc2nc(-c3ccc(N(C)C)c(Br)c3)cn2c1`: the GI50 in assay [1] was above 100 µM; in assay [2] it was 27.8 µM; in assay [3] it was 63.3 µM; in assay [4], above 100 µM. Besides, the TGI in assay [1], in assay [2], in assay [3] and in assay [4] was above 100 µM in each case.

For `Fc1cc2[nH]ncc2c2c3c(c(-c4cn[nH]c4C(F)(F)F)nc12)C1CCC3C1` (stereo not drawn), the GI50 in assay [1] was 2.4 µM; in assay [2] it was 0.815 µM; in assay [3], 0.883 µM; in assay [4], 0.85 µM. Moreover, the TGI worked out at 16.1 µM in assay [1], 5.57 µM in assay [2], 2.97 µM in assay [3] and 3.79 µM in assay [4].

On to `Cc1ccc(-c2csc(NC(=O)CN3CCN(c4cc5c(cc4F)c(=O)c(C(=O)O)cn5C4CC4)CC3)n2)cc1`, for which the GI50 was 3.06 µM in assay [1], 0.638 µM in assay [2], 0.358 µM in assay [3] and 1.16 µM in assay [4]. Further, the TGI is 34 µM in assay [1], above 100 µM in assay [2], 10.7 µM in assay [3] and 6.02 µM in assay [4].

As for `Cc1cc2c(cc1Cl)SC1=NN(C)C(N(C)C)N1S2(=O)=O` (stereo not drawn), the GI50 in assay [1], in assay [2], in assay [3] and in assay [4] was above 100 µM in each case. Moreover, the TGI in assay [1], in assay [2], in assay [3] and in assay [4] was above 100 µM each time.

Consider `CCOc1cc(/C=N\Nc2nnc(C)n2N)c(C)cc1N(CCCl)CCCl`, for which the GI50 in assay [1] is 1.37 µM; in assay [2] it was 0.391 µM; in assay [3], 1.33 µM; in assay [4] it was 0.46 µM. For the same compound, the TGI is 14.3 µM in assay [1], above 25.7 µM in assay [2], 20.6 µM in assay [3] and 14.3 µM in assay [4].

For `COc1cc(C(=O)Nc2cc3c(cc2Oc2cc(C)cc(C)c2)C(=O)N(C)[C@@H](CC(=O)N(C)O)C(=O)N3)c(Br)c(OC)c1OC`, the GI50 in assay [1] is 0.777 µM; in assay [2], below 0.00333 µM; in assay [3], below 0.00333 µM; in assay [4], below 0.00333 µM. Also, the TGI was 7.34 µM in assay [1], 0.00821 µM in assay [2], below 0.00333 µM in assay [3] and below 0.00333 µM in assay [4].

As to `COc1cc2c(=O)n(CCN)c3c4cc5c(cc4ccc3c2cc1OC)OCO5`, the GI50 is 1.26 µM in assay [1], 0.175 µM in assay [2], 1.06 µM in assay [3] and 0.508 µM in assay [4]. Also, the TGI came out at 3.6 µM in assay [1], 1.53 µM in assay [2], 2.7 µM in assay [3] and 16.8 µM in assay [4].

For the compound `Cn1c2c(c3ccc(Cl)c(Cl)c31)C(C#N)C1(CCNCC1)NC2=O` (stereo not drawn), the GI50 in assay [1] was 3.72 µM; in assay [2] it was 1.45 µM; in assay [3], 3.04 µM; in assay [4], 1.72 µM. The TGI in assay [1] worked out at 12.2 µM; in assay [2] it was 3.01 µM; in assay [3], 16.7 µM; in assay [4], 3.94 µM.

For `CCn1c(-c2nonc2N)nc2c(C#CC(C)(C)O)nc(OCCNC)cc21`, the GI50 is above 25 µM in assay [1], 4.9 µM in assay [2], 7.17 µM in assay [3] and 3.83 µM in assay [4]. Besides, the TGI in assay [1] is above 25 µM; in assay [2] it was above 25 µM; in assay [3], above 22.1 µM; in assay [4] it was above 25 µM.

Consider `O=C1c2cc(Cl)ccc2-c2c1c1ccc([N+](=O)[O-])cc1c(=O)n2CCCBr`, for which the GI50 is 5.01 µM in assay [1], 4.61 µM in assay [2], 34.2 µM in assay [3] and 3.23 µM in assay [4]. Further, the TGI in assay [1] was above 100 µM; in assay [2], above 100 µM; in assay [3] it was above 100 µM; in assay [4], 33.8 µM.

Take `COc1ccccc1/C=C/C(=O)c1ccccc1`: the GI50 in assay [1] was 5.75 µM; in assay [2] it was 1.56 µM; in assay [3] it was 10.2 µM; in assay [4], 16.8 µM. In addition, the TGI was above 38.2 µM in assay [1], 10.2 µM in assay [2], 23.9 µM in assay [3] and 63.3 µM in assay [4].

Turning to `Cc1sc2nc3c4ccccc4c(NCCCN(C)C)nn3c(=O)c2c1C`, the GI50 is 10.7 µM in assay [1], 1.43 µM in assay [2], 11.7 µM in assay [3] and 12.7 µM in assay [4]. The TGI in assay [1] was 24.8 µM; in assay [2], 5.63 µM; in assay [3], 26.9 µM; in assay [4], 26.1 µM.

Regarding `Cc1cc2c(cc1C)N(C(=O)CCl)CCN2C(=O)CCl`, the GI50 is 0.746 µM in assay [1], 0.451 µM in assay [2], 1.31 µM in assay [3] and 1.4 µM in assay [4]. Moreover, the TGI turned out to be 5.9 µM in assay [1], 2.02 µM in assay [2], 2.7 µM in assay [3] and 3.94 µM in assay [4].

Take `COc1cc(-c2cn(-c3ccc(Cl)c(Cl)c3)c(=O)n2C(C)=O)cc(OC)c1OC`: the GI50 was 13.5 µM in assay [1], 14.7 µM in assay [2], 10.7 µM in assay [3] and 18.4 µM in assay [4]. Also, the TGI in assay [1] worked out at 31.7 µM; in assay [2], 37.7 µM; in assay [3], 22.7 µM; in assay [4] it was 48.1 µM.

`O=C(O)C1CCCCC1C(=O)O.[NH-]C1CCC1.[NH2-].[Pt+2]` (stereo not drawn): the GI50 is 33.8 µM in assay [1], 22.7 µM in assay [2], 19.8 µM in assay [3] and 11 µM in assay [4]. In addition, the TGI in assay [1] is above 100 µM; in assay [2] it was above 100 µM; in assay [3], 77.9 µM; in assay [4] it was 34.7 µM.

For the compound `CCn1c2ccc(O)cc2c2c(C)c3c[n+](C)ccc3c(C)c21`, the GI50 in assay [1] is 31.1 µM; in assay [2] it was 2.65 µM; in assay [3], 1.55 µM; in assay [4], 0.435 µM. Moreover, the TGI in assay [1] was above 100 µM; in assay [2], 23.4 µM; in assay [3], 8.29 µM; in assay [4] it was 4.13 µM.
